Source: patent publication US6869960B2, “N-substituted spiropiperidine compounds as ligands for ORL-1 receptor” (Pfizer Inc., priority 2002, dated 2005)

Biological target: T1, human ORL1 receptor (Homo sapiens, UniProt P41146)
T1 construct: expressed in transfected cells; host or cells: HEK-293 cell membranes
Test: ORL1 receptor functional assay ([35S]GTPγS binding, nociceptin stimulated)
Type: biochemical
Details: at 10 nM nociceptin stimulation; human ORL1 receptor transfected HEK-293 cell membranes
Method: IC50(ORL1-receptors)nM/IC50(mu-receptors)nM<1.0 ORL1 Receptor Functional Assay • The human ORL1 receptor transfected HEK-293 cell membranes are incubated with 400 pM [^35S]GTPγS, 10 or 50 nM nociceptin and various concentrations of test compounds in assay buffer (20 mM HEPES, 100 mM NaCl, 5 mM MgCl2, 1 mM EDTA, […], 1 mM DTT, pH7.4) containing 1.5 mg of wheat germ agglutinin-coated SPA beads for 60 or 90 min at 25° C. in a final volume of 200 μl. Basal binding is assessed in the absence of nociceptin and non-specific binding is defined by the addition of unlabelled […]. Membrane-bound radioactivity is detected by a Liquid Scintillation Counter. […] Analgesic Tests Tail Flick Test in Mice • The latency time to withdrawal f the tail from radiant heat stimulation is recorded before and after administration of test compounds. Cut-off time is set to 8 sec. Acetic Acid Writhing Test in Mice • Acetic acid saline solution of 0.7% (v/v) is injected intraperitoneally (0.16 ml/10 g body weight) to mice. Test compounds are administered before acetic acid injection. As soon as acetic acid injection, animals are placed in a 1 liter beaker and writhing is recorded for 15 min. Formalin Licking Test in Mice • Formalin-induced hind paw licking is initiated by a 20 micro liters subcutaneous injection of a 2% formaline solution into a hind paw of mice. […]

T1 sequence (P41146 whole entry): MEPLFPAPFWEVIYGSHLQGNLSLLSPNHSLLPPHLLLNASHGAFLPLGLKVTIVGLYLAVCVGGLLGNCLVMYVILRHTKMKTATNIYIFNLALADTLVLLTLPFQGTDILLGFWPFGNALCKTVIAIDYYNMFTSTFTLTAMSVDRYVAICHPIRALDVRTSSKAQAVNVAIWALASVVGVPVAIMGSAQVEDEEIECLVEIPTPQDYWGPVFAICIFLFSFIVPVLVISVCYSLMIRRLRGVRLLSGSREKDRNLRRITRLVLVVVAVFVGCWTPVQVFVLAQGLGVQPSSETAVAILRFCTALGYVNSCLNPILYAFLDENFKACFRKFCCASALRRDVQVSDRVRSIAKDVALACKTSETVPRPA

| SMILES | IC50 |
| --- | --- |
| O=C1COc2cccc3c2N1CC(CN1CCC2(CCc4ccccc42)CC1)C3 (centres unmarked) [Example 20, 6-(2,3-Dihydro-1′H-spiro[indene-1,4′piperidin]-1′-ylmethyl)-6,7-dihydro-5H-[1,4]oxazino[2,3,4-ij]quinolin-3(2H)-one] | 13 nM |
| CN1CC2(CCN(CC3Cc4cccc(O)c4NC3=O)CC2)c2ccccc21 (centres unmarked) [Example 31, 8-Hydroxy-3-[(1-methyl-1,2-dihydro-1′H-spiro[indole-3,4′-piperidin]-1′-yl)methyl]-3,4-dihydroquinolin-2(1H)-one] | 13 nM |
